Data published in ChEMBL document CHEMBL3132769, “Fragment growing to retain or alter the selectivity of anchored kinase hinge-binding fragments” (Medchemcomm, 2014).

Assays:
[1] = target: Protein kinase C theta type (Homo sapiens) (UniProt Q04759); experiment: Inhibition of human truncated PKC theta expressed in baculovirus assessed as substrate phosphorylation using fluorescence-labelled peptides as substrate at 8 uM after 90 mins by microfluidic peptide phosphorylation assay
[2] = target: Tyrosine-protein kinase HCK (Homo sapiens) (UniProt P08631); experiment: Inhibition of human HCK catalytic domain expressed in baculovirus assessed as substrate phosphorylation using fluorescence-labelled peptides as substrate at 8 uM after 90 mins by microfluidic peptide phosphorylation assay
[3] = target: Mitogen-activated protein kinase 1 (Homo sapiens) (UniProt P28482); experiment: Inhibition of human full length ERK2 expressed in Escherichia coli cell assessed as substrate phosphorylation using fluorescence-labelled peptides as substrate at 8 uM after 90 mins by microfluidic peptide phosphorylation assay
[4] = target: Protein kinase C gamma type (Homo sapiens) (UniProt P05129); experiment: Inhibition of human truncated PKC gamma expressed in baculovirus assessed as substrate phosphorylation using fluorescence-labelled peptides as substrate at 8 uM after 90 mins by microfluidic peptide phosphorylation assay
[5] = target: T1, Protein kinase C zeta type (Homo sapiens) (UniProt Q05513); experiment: Inhibition of human full length PKC zeta expressed in baculovirus assessed as substrate phosphorylation using fluorescence-labelled peptides as substrate at 0.06 uM after 90 mins by microfluidic peptide phosphorylation assay
T1 sequence (whole entry): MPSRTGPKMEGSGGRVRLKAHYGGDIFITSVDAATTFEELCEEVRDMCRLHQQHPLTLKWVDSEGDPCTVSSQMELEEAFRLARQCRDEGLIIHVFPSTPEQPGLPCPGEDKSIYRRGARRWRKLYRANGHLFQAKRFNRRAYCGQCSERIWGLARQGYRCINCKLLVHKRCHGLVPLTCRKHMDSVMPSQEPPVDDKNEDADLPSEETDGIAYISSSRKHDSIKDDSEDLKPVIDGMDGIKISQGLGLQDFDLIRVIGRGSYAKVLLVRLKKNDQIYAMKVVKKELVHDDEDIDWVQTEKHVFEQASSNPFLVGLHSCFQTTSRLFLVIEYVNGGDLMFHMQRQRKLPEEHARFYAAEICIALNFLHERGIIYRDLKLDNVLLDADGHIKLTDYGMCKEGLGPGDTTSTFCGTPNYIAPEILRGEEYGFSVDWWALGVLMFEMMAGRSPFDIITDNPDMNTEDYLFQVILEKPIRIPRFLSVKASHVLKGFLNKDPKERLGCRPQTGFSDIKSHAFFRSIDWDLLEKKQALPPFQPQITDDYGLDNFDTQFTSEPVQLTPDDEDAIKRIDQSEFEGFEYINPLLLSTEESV

[6] = target: T2, Cytoplasmic tyrosine-protein kinase BMX (Homo sapiens) (UniProt P51813); experiment: Inhibition of human full length BMX expressed in baculovirus assessed as substrate phosphorylation using fluorescence-labelled peptides as substrate at 0.2 uM after 90 mins by microfluidic peptide phosphorylation assay
T2 sequence (whole entry): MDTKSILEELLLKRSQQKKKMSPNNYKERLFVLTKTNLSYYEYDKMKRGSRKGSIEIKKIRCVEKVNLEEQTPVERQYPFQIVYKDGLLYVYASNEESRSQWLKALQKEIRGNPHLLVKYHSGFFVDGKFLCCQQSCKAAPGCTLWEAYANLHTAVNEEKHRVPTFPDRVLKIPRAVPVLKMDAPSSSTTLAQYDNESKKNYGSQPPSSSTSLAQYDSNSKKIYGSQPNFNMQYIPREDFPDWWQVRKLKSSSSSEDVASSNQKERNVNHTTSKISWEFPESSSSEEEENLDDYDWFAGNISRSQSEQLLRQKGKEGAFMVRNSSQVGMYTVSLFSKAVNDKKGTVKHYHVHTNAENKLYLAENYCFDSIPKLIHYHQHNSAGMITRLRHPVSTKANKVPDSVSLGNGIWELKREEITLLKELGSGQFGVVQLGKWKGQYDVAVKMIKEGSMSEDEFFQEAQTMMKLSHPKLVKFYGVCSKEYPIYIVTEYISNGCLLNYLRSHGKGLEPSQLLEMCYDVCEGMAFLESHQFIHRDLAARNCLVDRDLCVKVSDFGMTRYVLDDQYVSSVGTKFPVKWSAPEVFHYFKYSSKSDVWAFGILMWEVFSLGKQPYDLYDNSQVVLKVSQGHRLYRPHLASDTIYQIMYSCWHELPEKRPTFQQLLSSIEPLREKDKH

[7] = target: MAP/microtubule affinity-regulating kinase 3 (Homo sapiens) (UniProt P27448); experiment: Inhibition of human full length c-TAK1 expressed in Escherichia coli cell assessed as substrate phosphorylation using fluorescence-labelled peptides as substrate at 2 uM after 90 mins by microfluidic peptide phosphorylation assay
[8] = target: Calcium/calmodulin-dependent protein kinase type II subunit beta (Homo sapiens) (UniProt Q13554); experiment: Inhibition of human CAMK2 beta catalytic domain expressed in baculovirus assessed as substrate phosphorylation using fluorescence-labelled peptides as substrate at 2 uM after 90 mins by microfluidic peptide phosphorylation assay
[9] = target: Rho-associated protein kinase 2 (Homo sapiens) (UniProt O75116); experiment: Inhibition of human ROCK2 catalytic domain expressed in baculovirus assessed as substrate phosphorylation using fluorescence-labelled peptides as substrate at […] after 90 mins by microfluidic peptide phosphorylation assay
[10] = target: Ribosomal protein S6 kinase alpha-4 (Homo sapiens) (UniProt O75676); experiment: Inhibition of human full length MSK2 expressed in baculovirus assessed as substrate phosphorylation using fluorescence-labelled peptides as substrate at 9 uM after 90 mins by microfluidic peptide phosphorylation assay
[11] = target: Vascular endothelial growth factor receptor 2 (Homo sapiens) (UniProt P35968); experiment: Inhibition of human KDR cytoplasmic domain expressed in baculovirus assessed as substrate phosphorylation using fluorescence-labelled peptides as substrate at 9 uM after 90 mins by microfluidic peptide phosphorylation assay
[12] = target: Protein kinase C eta type (Homo sapiens) (UniProt P24723); conditions: 0.1 uM
Description: Inhibition of human truncated PKC eta expressed in baculovirus assessed as substrate phosphorylation using fluorescence-labelled peptides as substrate at 0.1 uM after 90 mins by microfluidic peptide phosphorylation assay

[13] = target: Ribosomal protein S6 kinase alpha-3 (Homo sapiens) (UniProt P51812); experiment: Inhibition of human full length RSK2 expressed in baculovirus assessed as substrate phosphorylation using fluorescence-labelled peptides as substrate at 1000 uM after 90 mins by microfluidic peptide phosphorylation assay
[14] = target: Proto-oncogene tyrosine-protein kinase Src (Homo sapiens) (UniProt P12931); experiment: Inhibition of human full length SRC expressed in baculovirus assessed as substrate phosphorylation using fluorescence-labelled peptides as substrate at 70 uM after 90 mins by microfluidic peptide phosphorylation assay
Proto-oncogene tyrosine-protein kinase Src (Homo sapiens), sequence (P12931 2-536 limits assumed): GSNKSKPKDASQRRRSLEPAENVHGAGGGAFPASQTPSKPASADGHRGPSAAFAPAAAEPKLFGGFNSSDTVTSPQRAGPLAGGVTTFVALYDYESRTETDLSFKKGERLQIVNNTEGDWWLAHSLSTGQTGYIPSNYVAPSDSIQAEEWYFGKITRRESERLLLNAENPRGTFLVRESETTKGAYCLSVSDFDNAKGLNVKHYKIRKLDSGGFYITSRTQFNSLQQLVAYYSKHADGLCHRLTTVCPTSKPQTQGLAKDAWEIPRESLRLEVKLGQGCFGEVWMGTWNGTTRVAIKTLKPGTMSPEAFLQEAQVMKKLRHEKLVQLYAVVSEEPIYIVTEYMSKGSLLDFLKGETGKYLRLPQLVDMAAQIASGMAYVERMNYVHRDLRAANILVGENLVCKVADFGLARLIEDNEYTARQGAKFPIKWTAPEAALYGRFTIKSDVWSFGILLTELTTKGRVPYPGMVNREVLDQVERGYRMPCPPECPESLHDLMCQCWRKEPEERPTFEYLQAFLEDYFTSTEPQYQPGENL

MAP/microtubule affinity-regulating kinase 3 (Homo sapiens), sequence (P27448 whole entry, looked up, the tested form may be a part): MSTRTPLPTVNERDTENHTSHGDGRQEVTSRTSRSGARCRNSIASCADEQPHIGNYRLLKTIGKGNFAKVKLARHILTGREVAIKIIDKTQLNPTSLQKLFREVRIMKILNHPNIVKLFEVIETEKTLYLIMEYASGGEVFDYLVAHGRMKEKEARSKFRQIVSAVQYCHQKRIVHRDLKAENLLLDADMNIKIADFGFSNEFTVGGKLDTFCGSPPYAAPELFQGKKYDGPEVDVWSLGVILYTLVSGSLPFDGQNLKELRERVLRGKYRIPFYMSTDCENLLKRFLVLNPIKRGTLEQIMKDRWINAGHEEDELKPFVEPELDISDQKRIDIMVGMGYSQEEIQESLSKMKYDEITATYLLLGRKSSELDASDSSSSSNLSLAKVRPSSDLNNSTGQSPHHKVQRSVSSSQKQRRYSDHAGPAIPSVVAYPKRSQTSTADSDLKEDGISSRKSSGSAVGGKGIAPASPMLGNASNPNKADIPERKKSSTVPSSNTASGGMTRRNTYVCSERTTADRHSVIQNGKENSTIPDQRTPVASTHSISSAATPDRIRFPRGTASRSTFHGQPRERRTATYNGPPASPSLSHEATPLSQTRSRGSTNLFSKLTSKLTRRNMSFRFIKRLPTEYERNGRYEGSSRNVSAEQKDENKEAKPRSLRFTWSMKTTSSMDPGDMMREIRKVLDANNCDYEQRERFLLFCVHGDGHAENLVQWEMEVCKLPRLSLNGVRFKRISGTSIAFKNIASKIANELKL
Rho-associated protein kinase 2 (Homo sapiens), sequence (O75116 whole entry, looked up, the tested form may be a part): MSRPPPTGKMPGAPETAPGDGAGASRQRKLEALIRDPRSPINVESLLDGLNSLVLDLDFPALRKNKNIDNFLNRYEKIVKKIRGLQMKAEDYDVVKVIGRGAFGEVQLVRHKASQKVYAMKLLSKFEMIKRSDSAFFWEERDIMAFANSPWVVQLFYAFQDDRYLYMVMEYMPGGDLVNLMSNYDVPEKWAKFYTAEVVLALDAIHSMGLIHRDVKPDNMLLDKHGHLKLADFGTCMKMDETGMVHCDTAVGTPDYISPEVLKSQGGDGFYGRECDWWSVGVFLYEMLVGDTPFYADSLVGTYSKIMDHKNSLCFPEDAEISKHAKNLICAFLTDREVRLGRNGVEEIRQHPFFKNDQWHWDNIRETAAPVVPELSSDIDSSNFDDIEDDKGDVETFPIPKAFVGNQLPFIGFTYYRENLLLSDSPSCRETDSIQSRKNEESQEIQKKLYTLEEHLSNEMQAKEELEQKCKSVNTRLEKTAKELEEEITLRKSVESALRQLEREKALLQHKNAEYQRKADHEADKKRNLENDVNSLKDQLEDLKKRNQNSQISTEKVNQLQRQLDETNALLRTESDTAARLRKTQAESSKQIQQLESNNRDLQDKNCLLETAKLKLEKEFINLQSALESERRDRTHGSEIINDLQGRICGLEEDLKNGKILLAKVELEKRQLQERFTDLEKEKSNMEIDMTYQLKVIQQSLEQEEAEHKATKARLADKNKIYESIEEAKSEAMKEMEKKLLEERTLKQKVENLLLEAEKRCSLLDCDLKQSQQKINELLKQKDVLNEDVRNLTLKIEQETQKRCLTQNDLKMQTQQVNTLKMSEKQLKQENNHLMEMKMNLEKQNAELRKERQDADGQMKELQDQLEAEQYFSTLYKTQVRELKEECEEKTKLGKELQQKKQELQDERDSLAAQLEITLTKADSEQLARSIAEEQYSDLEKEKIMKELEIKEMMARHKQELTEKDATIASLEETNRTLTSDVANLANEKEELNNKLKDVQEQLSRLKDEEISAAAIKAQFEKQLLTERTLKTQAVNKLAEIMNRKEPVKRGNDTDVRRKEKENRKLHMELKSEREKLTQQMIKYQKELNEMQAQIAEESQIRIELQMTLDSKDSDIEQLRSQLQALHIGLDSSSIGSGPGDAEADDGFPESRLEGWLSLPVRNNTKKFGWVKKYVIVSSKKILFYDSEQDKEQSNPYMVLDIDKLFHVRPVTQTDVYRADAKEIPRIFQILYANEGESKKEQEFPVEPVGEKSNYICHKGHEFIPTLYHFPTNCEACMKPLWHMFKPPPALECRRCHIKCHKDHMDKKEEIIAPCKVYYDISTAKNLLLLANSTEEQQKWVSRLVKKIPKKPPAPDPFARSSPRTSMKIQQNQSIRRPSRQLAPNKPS
Protein kinase C eta type (Homo sapiens), sequence (P24723 whole entry): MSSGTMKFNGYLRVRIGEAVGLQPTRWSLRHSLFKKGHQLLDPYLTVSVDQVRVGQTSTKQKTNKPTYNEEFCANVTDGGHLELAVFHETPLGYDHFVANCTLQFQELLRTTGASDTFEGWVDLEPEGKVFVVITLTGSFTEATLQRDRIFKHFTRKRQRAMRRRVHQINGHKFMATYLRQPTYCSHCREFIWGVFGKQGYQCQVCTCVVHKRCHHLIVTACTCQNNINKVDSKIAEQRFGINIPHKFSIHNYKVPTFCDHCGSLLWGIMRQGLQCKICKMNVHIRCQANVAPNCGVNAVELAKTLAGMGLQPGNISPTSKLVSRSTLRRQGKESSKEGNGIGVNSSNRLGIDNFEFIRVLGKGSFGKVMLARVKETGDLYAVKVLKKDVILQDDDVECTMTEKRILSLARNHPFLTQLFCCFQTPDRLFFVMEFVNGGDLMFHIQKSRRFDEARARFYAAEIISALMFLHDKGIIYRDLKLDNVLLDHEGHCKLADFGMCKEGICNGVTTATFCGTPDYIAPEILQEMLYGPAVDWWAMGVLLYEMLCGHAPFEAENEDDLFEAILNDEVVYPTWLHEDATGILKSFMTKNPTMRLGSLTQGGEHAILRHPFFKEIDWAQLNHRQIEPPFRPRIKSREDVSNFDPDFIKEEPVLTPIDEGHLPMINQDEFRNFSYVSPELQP
Calcium/calmodulin-dependent protein kinase type II subunit beta (Homo sapiens), sequence (Q13554 whole entry, the tested form may be a part): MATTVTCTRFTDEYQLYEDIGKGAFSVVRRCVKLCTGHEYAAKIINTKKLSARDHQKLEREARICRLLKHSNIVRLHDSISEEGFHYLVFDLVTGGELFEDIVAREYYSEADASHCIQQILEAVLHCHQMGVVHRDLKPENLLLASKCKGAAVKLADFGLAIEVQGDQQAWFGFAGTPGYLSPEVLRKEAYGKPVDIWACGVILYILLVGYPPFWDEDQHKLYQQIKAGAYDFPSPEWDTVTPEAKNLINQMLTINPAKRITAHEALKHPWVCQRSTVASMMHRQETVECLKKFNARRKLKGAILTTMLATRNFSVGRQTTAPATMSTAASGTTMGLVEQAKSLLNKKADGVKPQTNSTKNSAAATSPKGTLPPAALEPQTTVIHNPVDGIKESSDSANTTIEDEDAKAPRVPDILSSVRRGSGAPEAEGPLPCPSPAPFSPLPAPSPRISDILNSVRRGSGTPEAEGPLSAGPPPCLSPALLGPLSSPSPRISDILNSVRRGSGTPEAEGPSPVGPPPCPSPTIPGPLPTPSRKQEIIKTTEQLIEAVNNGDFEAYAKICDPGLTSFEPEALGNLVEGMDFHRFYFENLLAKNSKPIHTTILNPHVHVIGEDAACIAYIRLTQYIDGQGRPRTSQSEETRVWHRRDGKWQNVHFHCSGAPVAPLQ
Protein kinase C theta type (Homo sapiens), sequence (Q04759 whole entry, looked up, the tested form may be a part): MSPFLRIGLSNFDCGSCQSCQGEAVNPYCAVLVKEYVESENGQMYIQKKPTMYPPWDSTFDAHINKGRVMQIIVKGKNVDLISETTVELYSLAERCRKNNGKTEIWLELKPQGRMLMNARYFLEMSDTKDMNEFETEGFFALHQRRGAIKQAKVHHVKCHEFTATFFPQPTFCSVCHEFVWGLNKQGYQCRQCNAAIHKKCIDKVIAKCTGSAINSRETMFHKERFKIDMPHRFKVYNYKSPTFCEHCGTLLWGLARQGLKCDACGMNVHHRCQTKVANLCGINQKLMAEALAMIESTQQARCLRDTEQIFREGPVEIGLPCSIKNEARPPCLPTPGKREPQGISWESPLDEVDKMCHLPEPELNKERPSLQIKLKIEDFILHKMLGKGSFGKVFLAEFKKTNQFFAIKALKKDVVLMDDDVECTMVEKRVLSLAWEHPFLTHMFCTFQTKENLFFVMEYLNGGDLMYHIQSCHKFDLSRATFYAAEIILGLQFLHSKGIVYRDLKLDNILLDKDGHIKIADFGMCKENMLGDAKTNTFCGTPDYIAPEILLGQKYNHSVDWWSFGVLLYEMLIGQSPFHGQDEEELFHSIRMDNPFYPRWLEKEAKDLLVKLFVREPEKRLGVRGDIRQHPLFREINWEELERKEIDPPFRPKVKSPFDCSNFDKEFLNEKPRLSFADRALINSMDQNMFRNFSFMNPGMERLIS

NCC1CCN(c2ncnc3[nH]ccc23)CC1
inhibition [1]: 67.5%
inhibition [2]: 19.5%
inhibition [3]: 7.5%
inhibition [4]: 86%

NC1(Cc2ccc(Cl)cc2)CCN(c2ncnc3[nH]ccc23)CC1
inhibition [5]: 0%

Clc1ccc(C2(c3ccc(-c4ncnc5[nH]cnc45)cc3)CCNCC2)cc1
inhibition [6]: 4%

NC1CCN(c2ncnc3[nH]ccc23)CC1
inhibition [7]: 3%
inhibition [8]: 25.5%

COC(=O)c1cnc(Nc2cnc(C#N)cn2)cc1NCC1CCNCC1
inhibition [9]: 2%

NCC1CN(c2ncnc3[nH]c4cnccc4c23)CCO1 (centres undefined)
inhibition [10]: 52%
inhibition [11]: 63.5%

C[C@H](CN(C)C)Oc1nc(Nc2cc3cccc(Cl)c3cn2)cnc1C#N
inhibition [12]: 0%

c1cnc2[nH]ccc2c1
inhibition [13]: 68.5%

CNCc1ccc(-c2ncnc3[nH]cnc23)cc1
inhibition [14]: 37.5%
